Results on 27 compounds are retold here after US20230167073A1 (Teijin Pharma Limited, priority 2020, published 2023).

Where only a bound is given, the exact number is not on record here.

This test concerns the target T1, Human TRPC6 (Homo sapiens, UniProt Q9Y210).
T1 construct: expressed in transfected cells
T1 sequence (Q9Y210 1-931): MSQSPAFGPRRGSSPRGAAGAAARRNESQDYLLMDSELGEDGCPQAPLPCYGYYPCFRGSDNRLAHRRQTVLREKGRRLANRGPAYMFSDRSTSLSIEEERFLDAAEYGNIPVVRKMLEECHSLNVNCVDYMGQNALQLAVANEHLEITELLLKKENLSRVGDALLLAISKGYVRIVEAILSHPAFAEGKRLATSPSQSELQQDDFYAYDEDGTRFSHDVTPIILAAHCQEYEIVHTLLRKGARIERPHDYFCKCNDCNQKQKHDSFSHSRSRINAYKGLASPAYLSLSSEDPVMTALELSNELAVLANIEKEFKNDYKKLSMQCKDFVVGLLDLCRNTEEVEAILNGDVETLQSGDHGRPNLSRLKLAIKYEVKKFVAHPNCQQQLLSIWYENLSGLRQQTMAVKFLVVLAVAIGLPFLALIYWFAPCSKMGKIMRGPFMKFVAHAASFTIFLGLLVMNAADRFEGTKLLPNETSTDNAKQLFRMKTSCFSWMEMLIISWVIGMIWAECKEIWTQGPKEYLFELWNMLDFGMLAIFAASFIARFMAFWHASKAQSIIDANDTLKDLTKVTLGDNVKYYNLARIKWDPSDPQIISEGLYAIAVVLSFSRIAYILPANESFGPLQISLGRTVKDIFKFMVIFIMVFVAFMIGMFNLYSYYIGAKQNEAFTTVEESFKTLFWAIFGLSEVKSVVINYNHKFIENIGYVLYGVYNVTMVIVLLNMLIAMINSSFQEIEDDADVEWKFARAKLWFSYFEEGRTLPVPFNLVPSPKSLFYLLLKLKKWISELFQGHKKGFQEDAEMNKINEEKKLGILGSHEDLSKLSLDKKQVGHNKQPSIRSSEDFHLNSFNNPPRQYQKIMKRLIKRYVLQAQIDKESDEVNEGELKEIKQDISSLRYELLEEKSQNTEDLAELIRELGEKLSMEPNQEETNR
Briefly: Evaluation of TRPC6 channel inhibitory activity (1), FLIPR Calcium 5 Assay Kit, OAG stimulation (Compound Nos. 1-1293). As to conditions: Human TRPC6 stably-expressing cells, OAG 30 μM, FLIPR Calcium 5 Assay Kit; read-out: Inhibitory activity (pIC50 class) (converted). The format is cell-based. In a few lines:
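Cells stably expressing human TRPC6, plated 24 h before, were loaded 30 min with Calcium 5 dye plus probenecid in HEPES-HBSS. Compound was added 20 min before OAG (30 μM final) and fluorescence tracked on FLIPR. Inhibition normalised to no-compound and no-compound/no-OAG wells; pIC50 from four-parameter fit, reported as +/++/+++ categories.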

Regarding `CC(C)c1cc(Oc2cc(F)ccc2-c2ccc(CN)cn2)n(C)n1` [compound 1011, [6-[4-fluoro-2-(2-methyl-5-propan-2-ylpyrazol-3-yl)oxyphenyl]pyridin-3-yl]methanamine], the IC50 was less than 10 nM.
Then `CC(C)c1cc(Oc2cc(F)ccc2-c2ncc(CN)cn2)n(C)n1` [compound 1012, [2-[4-fluoro-2-(2-methyl-5-propan-2-ylpyrazol-3-yl)oxyphenyl]pyrimidin-5-yl]methanamine], with less than 10 nM.
With `CC(C)c1cc(Oc2cc(F)ccc2-c2ncc(CCN)cn2)n(C)n1` [compound 1013, 2-[2-[4-fluoro-2-(2-methyl-5-propan-2-ylpyrazol-3-yl)oxyphenyl]pyrimidin-5-yl]ethanamine] the figure was less than 10 nM; with `CC(C)c1cc(Oc2cc(F)ccc2-c2ccc(CCN)cn2)n(C)n1` [compound 1014, 2-[6-[4-fluoro-2-(2-methyl-5-propan-2-ylpyrazol-3-yl)oxyphenyl]pyridin-3-yl]ethanamine], less than 10 nM.
Take `Cn1nc(C2CC2)cc1Oc1cc(F)ccc1-c1ncc(CN)cn1` [compound 1015, [2-[2-(5-cyclopropyl-2-methylpyrazol-3-yl)oxy-4-fluorophenyl]pyrimidin-5-yl]methanamine]: the IC50 is 10 to 1000 nM.
With `Cn1nc(C2CC2)cc1Oc1cc(F)ccc1-c1ccc(CN)cn1` [compound 1016, [6-[2-(5-cyclopropyl-2-methylpyrazol-3-yl)oxy-4-fluorophenyl]pyridin-3 - yl]methanamine] the figure was 10 to 1000 nM; with `Cn1nc(C2CC2)cc1Oc1cc(F)ccc1-c1ncc(CCN)cn1` [compound 1017, 2-[2-[2-(5-cyclopropyl-2-methylpyrazol-3-yl)oxy-4-fluorophenyl]pyrimidin-5-yl]ethanamine], less than 10 nM.
On to `Cn1nc(C2CC2)cc1Oc1cc(F)ccc1-c1ccc(CCN)cn1` [compound 1018, 2-[6-[2-(5-cyclopropyl-2-methylpyrazol-3-yl)oxy-4-fluorophenyl]pyridin-3-yl]ethanamine], for which the IC50 was less than 10 nM.
Consider `NCCc1cnc(-c2ccc(F)cc2Oc2cnn(CC(F)(F)F)c2)nc1` [compound 1019, 2-[2-[4-fluoro-2-[1-(2,2,2-trifluoroethyl)pyrazol-4-yl]oxyphenyl]pyrimidin-5-yl]ethanamine], for which the IC50 is 10 to 1000 nM.
Take `CC(C)n1cc(Oc2cc(Cl)ccc2-c2ncc(CCN)cn2)cn1` [compound 1020, 2-[2-[4-chloro-2-(1-propan-2-ylpyrazol-4-yl)oxyphenyl]pyrimidin-5-yl]ethanamine]: the IC50 was 10 to 1000 nM.
Take `CC(C)Cn1cc(Oc2cc(Cl)ccc2-c2ncc(CCN)cn2)cn1` [compound 1021, 2-[2-[4-chloro-2-[1-(2-methylpropyl)pyrazol-4-yl]oxyphenyl]pyrimidin-5-yl]ethanamine]: the IC50 is 10 to 1000 nM.
Then `NCCc1cnc(-c2ccc(Cl)cc2Oc2cnn(CC(F)F)c2)nc1` [compound 1022, 2-[2-[4-chloro-2-[1-(2,2-difluoroethyl)pyrazol-4-yl]oxyphenyl]pyrimidin-5-yl]ethanamine], with greater than 1000 nM; and `NCCc1cnc(-c2ccc(Cl)cc2Oc2cnn(CC(F)(F)F)c2)nc1` [compound 1023, 2-[2-[4-chloro-2-[1-(2,2,2-trifluoroethyl)pyrazol-4-yl]oxyphenyl]pyrimidin-5-yl]ethanamine], with 10 to 1000 nM; and `NCCc1cnc(-c2ccc(Cl)cc2Oc2cnn(-c3ccccn3)c2)nc1` [compound 1024, 2-[2-[4-chloro-2-(1-pyridin-2-ylpyrazol-4-yl)oxyphenyl]pyrimidin-5-yl]ethanamine], with 10 to 1000 nM.
`CCc1cc(C(=O)c2cc(C#N)ccc2-c2ncc(CCN)cn2)n(C)n1` [compound 1025, 4-[5-(2-aminoethyl)pyrimidin-2-yl]-3-(5-ethyl-2-methylpyrazole-3-carbonyl)benzonitrile]: the IC50 is less than 10 nM.
Then `CCc1cc(C(=O)c2cc(C#N)ccc2-c2ncc(CN)cn2)n(C)n1` [compound 1026, 4-[5-(aminomethyl)pyrimidin-2-yl]-3-(5-ethyl-2-methylpyrazole-3-carbonyl)benzonitrile], with less than 10 nM; and `Cn1nc(N2CCOCC2)cc1C(=O)c1cc(C#N)ccc1-c1ncc(CCN)cn1` [compound 1027, 4-[5-(2-aminoethyl)pyrimidin-2-yl]-3-(2-methyl-5-morpholin-4-ylpyrazole-3-carbonyl)benzonitrile], with less than 10 nM; and `Cn1nc(N2CCOCC2)cc1C(=O)c1cc(C#N)ccc1-c1ccc(CN)cn1` [compound 1029, 4-[5-(aminomethyl)pyridin-2-yl]-3-(2-methyl-5-morpholin-4-ylpyrazole-3-carbonyl)benzonitrile], with less than 10 nM.
Then `Cn1nc(C(C)(C)C)cc1C(=O)c1cc(C#N)ccc1-c1ncc(CCN)cn1` [compound 1031, 4-[5-(2-aminoethyl)pyrimidin-2-yl]-3-(5-tert-butyl-2-methylpyrazole-3-carbonyl)benzonitrile], with less than 10 nM; and `CCN(CC)c1cc(C(=O)c2cc(C#N)ccc2-c2ncc(CCN)cn2)n(C)n1` [compound 1032, 4-[5-(2-aminoethyl)pyrimidin-2-yl]-3-[5-(diethylamino)-2-methylpyrazole-3-carbonyl]benzonitrile], with less than 10 nM; and `Cc1nn(CC2CC2)cc1C(=O)c1cc(C#N)ccc1-c1ncc(CCN)cn1` [compound 1033, 4-[5-(2-aminoethyl)pyrimidin-2-yl]-3-[1-(cyclopropylmethyl)-3-methylpyrazole-4-carbonyl]benzonitrile], with less than 10 nM.
With `Cc1c(C(=O)c2cc(C#N)ccc2-c2ncc(CCN)cn2)cnn1CC1CC1` [compound 1034, 4-[5-(2-aminoethyl)pyrimidin-2-yl]-3-[1-(cyclopropylmethyl)-5-methylpyrazole-4-carbonyl]benzonitrile] the figure was 10 to 1000 nM; with `Cc1nn(CC2CC2)cc1C(=O)c1cc(C#N)ccc1-c1ncc(CN)cn1` [compound 1035, 4-[5-(aminomethyl)pyrimidin-2-yl]-3-[1-(cyclopropylmethyl)-3-methylpyrazole-4-carbonyl]benzonitrile], less than 10 nM; with `Cc1c(C(=O)c2cc(C#N)ccc2-c2ncc(CN)cn2)cnn1CC1CC1` [compound 1036, 4-[5-(aminomethyl)pyrimidin-2-yl]-3-[1-(cyclopropylmethyl)-5-methylpyrazole-4-carbonyl]benzonitrile], greater than 1000 nM.
Take `N#Cc1ccc(-c2ncc(CCN)cn2)c(C(=O)c2cnn(-c3ccccn3)c2)c1` [compound 1037, 4-[5-(2-aminoethyl)pyrimidin-2-yl]-3-(1-pyridin-2-ylpyrazole-4-carbonyl)benzonitrile]: the IC50 was less than 10 nM.
Then `N#Cc1ccc(-c2ncc(CN)cn2)c(C(=O)c2cnn(-c3ccccn3)c2)c1` [compound 1038, 4-[5-(aminomethyl)pyrimidin-2-yl]-3-(1-pyridin-2-ylpyrazole-4-carbonyl)benzonitrile], with 10 to 1000 nM; and `N#Cc1ccc(-c2ncc(CCN)cn2)c(C(=O)c2cnc(C(F)(F)F)s2)c1` [compound 1039, 4-[5-(2-aminoethyl)pyrimidin-2-yl]-3-[2-(trifluoromethyl)-1,3-thiazole-5-carbonyl]benzonitrile], with 10 to 1000 nM.
